In article PMC6199744, “Development of Chemical Proteomics for the Folateome and Analysis of the Kinetoplastid Folateome” (ACS Infectious Diseases, 2018):
Like-named read-outs stand apart in the source and are kept apart here.

What was measured:
DHFR-TS [1] = molecular target: DHFR-TS (Leishmania major, UniProt P07382); experiment: biochemical; details: competing free ligand 100 μM; bead = immobilized compound of the row; L. major lysate; read-out: % Inhibition of protein binding to bead, DHFR-TS, L. major
Chain of DHFR-TS (Leishmania major, UniProt P07382) (P07382 whole entry): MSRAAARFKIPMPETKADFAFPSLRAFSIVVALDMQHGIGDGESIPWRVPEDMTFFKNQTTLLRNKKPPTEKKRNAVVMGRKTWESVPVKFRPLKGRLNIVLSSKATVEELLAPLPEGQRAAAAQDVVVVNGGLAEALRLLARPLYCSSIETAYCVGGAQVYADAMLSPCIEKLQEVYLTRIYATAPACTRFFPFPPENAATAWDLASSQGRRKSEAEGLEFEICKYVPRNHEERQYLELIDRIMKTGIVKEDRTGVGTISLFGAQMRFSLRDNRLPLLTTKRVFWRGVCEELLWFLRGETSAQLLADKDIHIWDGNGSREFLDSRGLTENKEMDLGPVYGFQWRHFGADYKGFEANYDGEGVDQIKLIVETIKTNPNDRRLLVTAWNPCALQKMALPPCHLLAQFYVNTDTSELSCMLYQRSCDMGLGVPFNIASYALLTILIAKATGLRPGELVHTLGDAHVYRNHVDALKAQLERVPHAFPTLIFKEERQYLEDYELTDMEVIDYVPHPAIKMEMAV

DHFR-TS [2] = molecular target: DHFR-TS (Trypanosoma brucei brucei, UniProt Q27783); experiment: Individual bead pull down with competing free ligand; details: competing free ligand 100 μM; bead = immobilized compound of the row; T. brucei lysate; read-out: % Inhibition of protein binding to bead, DHFR-TS, T. brucei
Chain of DHFR-TS (Trypanosoma brucei brucei, UniProt Q27783) (Q27783 whole entry): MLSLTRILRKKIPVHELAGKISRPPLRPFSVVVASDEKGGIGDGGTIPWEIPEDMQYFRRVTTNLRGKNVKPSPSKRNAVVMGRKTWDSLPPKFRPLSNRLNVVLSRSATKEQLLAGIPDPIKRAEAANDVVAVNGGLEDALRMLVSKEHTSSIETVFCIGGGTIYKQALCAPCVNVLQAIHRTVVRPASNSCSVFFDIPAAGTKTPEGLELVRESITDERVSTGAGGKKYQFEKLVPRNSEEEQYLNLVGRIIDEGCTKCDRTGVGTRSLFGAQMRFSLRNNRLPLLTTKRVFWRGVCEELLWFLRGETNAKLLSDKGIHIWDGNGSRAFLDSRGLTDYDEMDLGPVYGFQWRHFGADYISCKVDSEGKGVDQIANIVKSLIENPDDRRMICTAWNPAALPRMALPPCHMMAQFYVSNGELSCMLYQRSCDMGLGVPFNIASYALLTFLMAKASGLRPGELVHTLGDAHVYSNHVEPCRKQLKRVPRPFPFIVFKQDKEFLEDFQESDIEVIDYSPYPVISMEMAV
Excerpt: (§1) Antifolate compounds were immobilized onto NHS-activated sepharose beads/reverse sepharose beads through amide coupling via either an amino or carboxyl group (see Figure 3). The reaction was monitored by observing the disappearance of test compound by LCMS, after which the unreacted coupling sites were capped with NHS-acetate or aminoethanol.
(§2) Folate metabolizing enzymes are not highly abundant proteins,[19],[20] potentially making their identification by MS difficult. Beads will not only pull down the low abundant high affinity binders but also attract highly abundant, low affinity binders or so-called nonspecific binders. Sometimes, the nonspecific high abundant proteins can mask true binders. The target identification approach used in this study overcomes this issue by performing competition studies. Various concentrations of the free unmodified inhibitor (test compound) were preincubated with the lysate, prior to addition of the beads derivatized with immobilized compounds. Following washing of the bound proteins from the beads and tryptic digest, the peptides were labeled using the TMTs and then pooled. Differences in peptide abundance were analyzed by fragmentation of the isotope-coded isobaric tags in the MS/MS spectra (Figure 5).[9],[11],[12],[21] While the competition experiments with test compound confirm specific binding, it is also possible that some proteins will have a stronger binding interaction with the derivatized beads than the competing test compound, due to subtle differences in the interactions between the immobilized compound and the test compound with the target protein.

PTR-1 = PTR-1 (Trypanosoma brucei brucei, UniProt O76290); experiment: as above; details: competing free ligand 100 μM; bead = immobilized compound of the row; T. brucei lysate; read-out: % Inhibition of protein binding to bead, PTR-1, T. brucei
Chain of PTR-1 (O76290 entry or part of it): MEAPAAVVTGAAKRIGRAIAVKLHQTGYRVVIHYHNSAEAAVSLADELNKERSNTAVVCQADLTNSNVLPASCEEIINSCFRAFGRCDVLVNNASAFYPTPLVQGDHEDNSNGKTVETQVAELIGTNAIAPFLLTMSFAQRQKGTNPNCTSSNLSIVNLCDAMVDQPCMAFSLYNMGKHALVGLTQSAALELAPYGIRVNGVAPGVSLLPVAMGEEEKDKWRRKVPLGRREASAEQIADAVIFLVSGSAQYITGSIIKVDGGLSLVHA
Excerpt: as §1, §2

[3] = test system: HYPOTHETICAL PROTEIN, CONSERVED (Tb427.10.6100); experiment: Multitargeted bead mixture competition; type: binding; details: free ligand 100 μM, T. brucei lysate
[4] = test system: IRON/ASCORBATE OXIDOREDUCTASE FAMILY PROTEIN, PUTA (Tb427.02.6180); experiment: Multitargeted bead mixture competition; type: binding, T. brucei; details: multitargeted bead mixture; free ligand 100 μM; T. brucei lysate; Tb427.02.6180
[5] = test system: NGG1 INTERACTING FACTOR 3-LIKE (Tb427tmp.02.5000); type: binding; details: multitargeted bead mixture; free ligand 100 μM; T. brucei lysate; Tb427tmp.02.5000
[6] = test system: PEPTIDYL-PROLYL CIS-TRANS ISOMERASE (CYCLOPHILIN- (TB427TMP.211.1350)); experiment: Multitargeted bead mixture competition; type: binding; details: free ligand 100 μM, T. brucei lysate
TB427.04.1870 = experiment: Multitargeted bead mixture competition; type: binding; details: free ligand 100 μM, T. brucei lysate
[7] = test system: HYPOTHETICAL PROTEIN, CONSERVED (TB427.03.2670); experiment: Multitargeted bead mixture competition; type: binding; details: free ligand 100 μM, T. brucei lysate
[8] = test system: HYPOTHETICAL PROTEIN, CONSERVED (TB427.05.3680); experiment: Multitargeted bead mixture competition; type: binding; details: free ligand 100 μM, T. brucei lysate
[9] = test system: CHOLINE KINASE (TB427TMP.18.0017); experiment: Multitargeted bead mixture competition; type: binding, T. brucei; details: multitargeted bead mixture; free ligand 100 μM; T. brucei lysate; TB427TMP.18.0017 CHOLINE KINASE
[10] = test system: PHOSPHATIDYLINOSITOL-4-PHOSPHATE 5-KINASE, PUTATIV (TB427.10.3890); experiment: Multitargeted bead mixture competition; type: binding; details: free ligand 100 μM, T. brucei lysate
[11] = molecular target: GLYCERALDEHYDE 3-PHOSPHATE DEHYDROGENASE, GLYCOSOM (TB427.06.4300) (Trypanosoma brucei brucei, UniProt P22512); experiment: Multitargeted bead mixture competition; type: binding, T. brucei; details: multitargeted bead mixture; free ligand 100 μM; T. brucei lysate; TB427.06.4300 GAPDH
Chain of UniProt P22512 (P22512 whole entry): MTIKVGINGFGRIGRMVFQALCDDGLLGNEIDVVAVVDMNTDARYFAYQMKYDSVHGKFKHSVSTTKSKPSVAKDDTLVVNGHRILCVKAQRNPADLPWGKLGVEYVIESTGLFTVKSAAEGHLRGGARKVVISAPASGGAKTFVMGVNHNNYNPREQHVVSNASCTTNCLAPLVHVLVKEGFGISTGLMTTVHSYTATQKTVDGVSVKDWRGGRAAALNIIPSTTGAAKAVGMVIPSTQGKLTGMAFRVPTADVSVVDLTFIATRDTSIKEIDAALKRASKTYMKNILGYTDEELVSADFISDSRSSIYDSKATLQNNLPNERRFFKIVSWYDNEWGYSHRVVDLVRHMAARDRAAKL

TB11.03.0290 = experiment: Multitargeted bead mixture competition; type: binding, T. brucei; details: multitargeted bead mixture; free ligand 100 μM; T. brucei lysate; TB11.03.0290
TB927.8.6460 = experiment: Multitargeted bead mixture competition; type: binding, T. brucei; details: multitargeted bead mixture; free ligand 100 μM; T. brucei lysate; TB927.8.6460
TB927.7.1340 = experiment: Multitargeted bead mixture competition; type: binding; details: free ligand 100 μM, T. brucei lysate
TB09.211.1690 = experiment: Multitargeted bead mixture competition; type: binding; details: free ligand 100 μM, T. brucei lysate
[12] = molecular target: T1, MTHFS, the 5-formyl-THF-cyclo-ligase (Homo sapiens, UniProt P49914); experiment: Multitargeted bead mixture competition, HeLa cell extract; type: binding; details: bead mixture; HeLa cell extract
T1 sequence (P49914 1-203): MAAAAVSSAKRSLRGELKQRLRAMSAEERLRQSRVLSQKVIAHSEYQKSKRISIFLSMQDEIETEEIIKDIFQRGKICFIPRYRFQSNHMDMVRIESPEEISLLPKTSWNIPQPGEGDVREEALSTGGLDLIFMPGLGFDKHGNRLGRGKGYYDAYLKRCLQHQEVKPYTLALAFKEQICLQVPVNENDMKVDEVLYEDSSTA

[13] = molecular target: DIHYDROFOLATE REDUCTASE-T[…] (TB427.07.5480) (Trypanosoma brucei brucei, UniProt Q27783); experiment: Multitargeted bead mixture competition; type: binding; details: multitargeted bead mixture; free ligand 100 μM; T. brucei lysate; TB427.07.5480 DHFR-TS
Chain of UniProt Q27783 (Q27783 whole entry): as the sequence (Q27783 whole entry) above

TbTS = details: recombinant protein assay; ref 6 (SI); read-out: Ki, recombinant TbTS; cited from earlier work
[14] = test system: PROTEIN KINASE, PUTATIVE (Tb427.03.1570); experiment: Multitargeted bead mixture competition; type: binding; details: free ligand 100 μM, T. brucei lysate
PTR1 = molecular target: T2, PTR1 (Leishmania major, UniProt Q01782); experiment: biochemical; details: competing free ligand 100 μM; bead = immobilized compound of the row; L. major lysate; read-out: % Inhibition of protein binding to bead, PTR-1, L. major
T2 sequence (Q01782 1-288): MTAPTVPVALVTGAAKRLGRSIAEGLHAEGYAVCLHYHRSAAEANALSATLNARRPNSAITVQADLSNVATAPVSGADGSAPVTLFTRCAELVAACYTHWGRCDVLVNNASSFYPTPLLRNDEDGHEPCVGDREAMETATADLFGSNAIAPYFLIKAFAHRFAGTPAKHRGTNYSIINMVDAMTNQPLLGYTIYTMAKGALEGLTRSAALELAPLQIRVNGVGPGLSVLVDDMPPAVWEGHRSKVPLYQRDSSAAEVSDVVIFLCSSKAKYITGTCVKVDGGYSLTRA

[15] = test system: ACETYLTRANSFERASE, PUTATIVE (Tb427.08.3310); experiment: Multitargeted bead mixture competition; type: binding; details: free ligand 100 μM, T. brucei lysate
TB927.8.6760 = experiment: Multitargeted bead mixture competition; type: binding; details: free ligand 100 μM, T. brucei lysate
[16] = test system: BRANCHED-CHAIN AMINO ACID AMINOTRANSFERASE, PUTATI (TB427.02.4590); experiment: Multitargeted bead mixture competition; type: binding; details: free ligand 100 μM, T. brucei lysate
[17] = molecular target: PTERIDINE REDUCTASE (TB927.8.2210) (Trypanosoma brucei brucei, UniProt O76290); experiment: Multitargeted bead mixture competition; type: binding, T. brucei; details: multitargeted bead mixture; free ligand 100 μM; T. brucei lysate; TB927.8.2210 PTERIDINE REDUCTASE
Chain of PTERIDINE REDUCTASE (TB927.8.2210) (O76290 entry or part of it): as the sequence (O76290 entry or part of it) above

[18] = test system: SUCCINYL-COA SYNTHETASE ALPHA SUBUNIT, PUTATIVE (Tb427.03.2230); experiment: Multitargeted bead mixture competition; type: binding; details: free ligand 100 μM, T. brucei lysate
leishmania DHCH enzyme = molecular target: leishmania DHCH enzyme; design: method as in ref 10 (SI); details: ref 10 (SI); cited from earlier work
human enzyme (DHCH) = molecular target: human enzyme (DHCH); design: method as in ref 8 (SI); details: ref 8 (SI); cited from earlier work
[19] = test system: T. brucei lysate proteins; type: binding, Trypanosoma brucei; details: X016405, bead mixture, free compound 100.0uM, Trypanosoma brucei

Compound: Nc1nc(=O)c2nc(CNc3ccc(C(=O)N[C@@H](CCC(=O)O)C(=O)O)cc3)cnc2[nH]1 [Folic acid]
- inhibition at 100 µM (DHFR-TS [1]): 85%
- inhibition at 100 µM (DHFR-TS [2]): 77%
- inhibition at 100 µM (PTR-1): 92%

Compound: Cc1ccc2nc(N)[nH]c(=O)c2c1Sc1ccncc1 [NTX, nolatrexed]
- percentage of competition from bead binding [3]: 33%
- percentage of competition from bead binding [4]: 52%
- percentage of competition from bead binding [5]: 87%
- percentage of competition from bead binding [6]: 1%
- inhibition at 100 µM (DHFR-TS [1]): < 50%
- percentage of competition from bead binding (TB427.04.1870): 52%
- percentage of competition from bead binding [7]: 11%
- percentage of competition from bead binding [8]: 38%
- percentage of competition from bead binding [9]: 34%
- percentage of competition from bead binding [10]: 16%
- percentage of competition from bead binding [11]: 18%
- percentage of competition from bead binding (TB11.03.0290): 77%
- percentage of competition from bead binding (TB927.8.6460): 68%
- percentage of competition from bead binding (TB927.7.1340): 11%
- percentage of competition from bead binding (TB09.211.1690): -7%
- binding to MTHFS [12]: bound MTHFS
- percentage of competition from bead binding [13]: -5%
- Ki (TbTS): 0.0394 µM
- percentage of competition from bead binding [14]: 11%
- inhibition at 100 µM (PTR1): < 50%
- percentage of competition from bead binding [15]: 29%
- percentage of competition from bead binding (TB927.8.6760): 8%
- percentage of competition from bead binding [16]: 9%
- percentage of competition from bead binding [17]: 16%
- percentage of competition from bead binding [18]: 27%

Compound: Nc1nc2c(c(=O)[nH]1)N1C(=O)N(c3ccc(C(=O)NC(CCC(=O)O)C(=O)O)cc3)CC1CN2 (stereo not drawn) [compound 4]
- Ki (leishmania DHCH enzyme): 0.105 ± 0.002 µM
- Ki (human enzyme (DHCH)): 0.018 ± 0.005 µM

Compound: Nc1nc(O)c2c(CCc3ccccc3)c[nH]c2n1 [compound 5]
- percentage of competition from bead binding [3]: 77%
- percentage of competition from bead binding [4]: 80%
- percentage of competition from bead binding [5]: 6%
- percentage of competition from bead binding [6]: -24%
- percentage of competition from bead binding (TB427.04.1870): 50%
- percentage of competition from bead binding [7]: 54%
- percentage of competition from bead binding [8]: 70%
- percentage of competition from bead binding [9]: 49%
- percentage of competition from bead binding [10]: 49%
- percentage of competition from bead binding [11]: 15%
- percentage of competition from bead binding (TB11.03.0290): 61%
- abundance relative to vehicle ([19]; protein TB427.02.1850): 0.89
- abundance relative to vehicle ([19]; protein TB427.06.4760): 1.04
- abundance relative to vehicle ([19]; protein TB427.07.3620): 1.03
- abundance relative to vehicle ([19]; protein TB427.08.1880): 0.84
- percentage of competition from bead binding (TB927.8.6460): 65%
- percentage of competition from bead binding (TB927.7.1340): -41%
- percentage of competition from bead binding (TB09.211.1690): -34%
- percentage of competition from bead binding [13]: 5%
- percentage of competition from bead binding [14]: 60%
- percentage of competition from bead binding [15]: 61%
- percentage of competition from bead binding (TB927.8.6760): -71%
- percentage of competition from bead binding [16]: -22%
- percentage of competition from bead binding [17]: 93%
- percentage of competition from bead binding [18]: 51%

Compound: NCCCCCOc1ccc(Cc2cnc(N)nc2N)cc1 [compound 10]
- inhibition at 100 µM (DHFR-TS [2]): 84%
- inhibition at 100 µM (PTR-1): 77%

Compound: NCCCCCOc1cccc(Cc2cnc(N)nc2N)c1 [compound 11]
- inhibition at 100 µM (DHFR-TS [2]): 87%
- inhibition at 100 µM (PTR-1): 56%

Compound: NCCOCCOc1cccc(Cc2cnc(N)nc2N)c1 [compound 12]
- inhibition at 100 µM (DHFR-TS [2]): 79%
- inhibition at 100 µM (PTR-1): 51%

Compound: NCCOCCOc1ccc(Cc2cnc(N)nc2N)cc1 [compound 13]
- inhibition at 100 µM (DHFR-TS [2]): 75%
- inhibition at 100 µM (PTR-1): 51%
